Target: T1, human GPR39 receptor (Homo sapiens, UniProt O43194)
T1 construct: PC3 Cells, Expressing the Endogenous Human GPR39 Receptor; endogenous in cells; host or cells: PC3 (human prostate adenocarcinoma) cells
T1 sequence (O43194 1-453): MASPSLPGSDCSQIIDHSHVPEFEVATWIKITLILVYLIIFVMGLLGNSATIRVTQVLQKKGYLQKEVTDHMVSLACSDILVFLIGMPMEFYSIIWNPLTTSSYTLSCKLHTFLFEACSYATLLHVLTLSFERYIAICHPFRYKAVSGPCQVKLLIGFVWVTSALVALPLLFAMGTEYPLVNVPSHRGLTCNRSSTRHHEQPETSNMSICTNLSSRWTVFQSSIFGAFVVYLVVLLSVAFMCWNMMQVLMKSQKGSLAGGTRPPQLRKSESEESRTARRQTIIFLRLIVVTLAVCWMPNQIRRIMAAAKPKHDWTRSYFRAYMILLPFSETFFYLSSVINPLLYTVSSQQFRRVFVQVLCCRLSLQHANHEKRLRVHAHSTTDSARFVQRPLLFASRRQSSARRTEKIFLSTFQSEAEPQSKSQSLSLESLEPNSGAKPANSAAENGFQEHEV
Assay: Measurement of intracellular calcium response in PC3 cells (FLIPR), antagonism of the C3 agonist response
Type: cell-based
Conditions: functional pKi (modified Cheng-Prusoff), inhibition of the C3 (TC-G 1008) response at EC90, 30 μM ZnCl2, read-out: fpKi activity
Experimental: Human prostate adenocarcinoma (PC3) cells endogenously expressing human GPR39 receptor were seeded into black walls clear-base 384-well plates at a density of 7,500 cells per well in DM EM (Low Glucose) supplemented with 10% heat-inactivated foetal bovine serum and 1% of Pen/Strep and grown overnight at 37° C., 5% CO2. After washing with assay buffer (20 mM HEPES, 137 mM NaCI, 5.4 mM KCI, 10 mM glucose, 0.8 mM MgSO4, 1.3 mM CaCl2, 0.3 mM Na2HPO4, 0.4 mM KH2PO4 4.2 mM NaHCO3, pH 7.4), cells were incubated with Calcium-6 probe (Molecular Devices) at 37° C. for 2h and then equilibrated at RT for 30 minutes on metal block. The fluorescence was measured in real time by Fluorometric Imaging Plate Reader (FLIPR TETRA, Molecular Devices) (excitation wavelength at 470-495 nm, emission wavelength at 515-575 nm).
Compounds of invention were serially diluted in neat DMSO at 1000 fold concentrations and plated into 384-well plates and then 200-fold diluted in assay buffer containing 150 uM ZnCl2 (30 μM final concentration) and […].
Fluorescence was monitored throughout the run assay. The peak of Ca2+stimulation (baseline subtracted) was expressed as percentage of the maximal inhibition of the EC90 C3 response and was plotted versus the concentration of test compound. Curve fitting and IC50 estimations are carried out using a four-parameter logistic model using XLfit Software.
The potency of compounds was reported as functional pKi (—Log10Ki) obtained using the modified Cheng-Prusoff relationship (Cheng, Y., Prusoff, W. H. 1973.)
fKi =IC50/(1+[L]/EC50) where IC50 is the concentration of antagonist required for 50% inhibition of the maximum response, [L] is the concentration of the agonist used (EC90) and EC50 is the concentration of agonist need to induced 50% of the maximum response (obtained in each experimental plate).
An fpKi less than 5.2 is reported as “+/±”. An fpKi ranging from 5.2 to 5.9 is reported as “+”. An fpKi from 6.0 to 6.5 is reported as “++”. An fpKi from 6.6 to 7.2 is reported as “+++”. An fpKi equal to or greater than 7.3 is reported as “++++”.

Work on `CN1CCN(C(=O)c2ccc(NC(=O)C3CC3)cc2N2CCCC2)C(c2ccccc2)C1` (racemic) [Example 62c, N-[4-(4-methyl-2-phenylpiperazine-1-carbonyl)-3-pyrrolidin-1-ylphenyl]Cyclopropanecarboxamide] yielded a Ki of 63.1 to 251 nM.

For `CC1CCN(c2cc(NC(=O)C3CC3)ccc2C(=O)N2CCC(C(F)(F)F)CC2)C1` (racemic) [Example 63c, N-[3-(3-methylpyrrolidin-1-yl)-4-[4-(trifluoromethyl)piperidine-1-carbonyl]phenyl]cyclopropanecarboxamide], the Ki was ≤ 50.1 nM.

In the case of `CN1CCN(C(=O)c2ccc(NC(=O)C3CC3)cc2N2CCC3(CCC3)C2)C(c2ccccc2)C1` (racemic) [Example 66c, N-[3-(6-azaspiro[3.4]octan-6-yl)-4-(4-methyl-2-phenylpiperazine-1-carbonyl)phenyl]cyclopropanecarboxamide], the Ki is reported as ≤ 50.1 nM.

In the case of `CC1CC(C)CN(c2cc(NC(=O)C3CC3)ccc2C(=O)N2CCN(C)CC2c2ccccc2)C1` (racemic) [Example 68c, Syn N-[3-[3,5-dimethylpiperidin-1-yl]-4-(4-methyl-2-phenylpiperazine-1-carbonyl)phenyl]cyclopropanecarboxamide], the Ki is reported as ≤ 50.1 nM.

In the case of `CN1CCN(C(=O)c2ccc(NC(=O)C3CC3)cc2N2CCCCCC2)C(c2cccs2)C1` (racemic) [Example 69c, N-(3-(azepan-1-yl)-4-(4-methyl-2-(thiophen-2-yl)piperazine-1-carbonyl)phenyl) cyclopropane carboxamide], the Ki is reported as ≤ 50.1 nM.

`CN1CCN(C(=O)c2ccc(NC(=O)C3CC3)cc2N2CCCCCC2)C(c2ccsc2)C1` (racemic) [Example 70c, N-(3-(azepan-1-yl)-4-(4-methyl-2-(thiophen-3-yl)piperazine-1-carbonyl)phenyl)cyclopropane carboxamide] was tested, and the Ki was 63.1 to 251 nM.

`CCCN1CCN(C(=O)c2ccc(NC(=O)C3CC3)cc2N2CCCCCC2)C(c2ccccc2)C1` (racemic) [Example 73c, N-[3-(azepan-1-yl)-4-(2-phenyl-4-propylpiperazine-1-carbonyl)phenyl]Cyclopropanecarboxamide] was tested, and the Ki was ≤ 50.1 nM.

For `CN1CCN(C(=O)c2ccc(NC(=O)C3CC3)cc2N2CCCC2)C(c2ccccc2F)C1` (racemic) [Example 84c, N-[4-[2-(2-fluorophenyl)-4-methylpiperazine-1-carbonyl]-3-pyrrolidin-1-ylphenyl]cyclopropanecarboxamide], the Ki was 63.1 to 251 nM.

`CN1CCN(C(=O)c2ccc(NC(=O)C3CC3)cc2N2CCC3(CCC3)C2)C(c2cccs2)C1` (racemic) [Example 85, N-[3-(6-azaspiro[3.4]octan-6-yl)-4-(4-methyl-2-thiophen-2-ylpiperazine-1-carbonyl)phenyl]Cyclopropanecarboxamide] was tested, and the Ki was ≤ 50.1 nM.

`CN1CCN(C(=O)c2ccc(NC(=O)C3CC3)cc2N2CCCC2)C(c2cccs2)C1` (racemic) [Example 86c, N-[4-(4-methyl-2-thiophen-2-ylpiperazine-1-carbonyl)-3-pyrrolidin-1-ylphenyl]cyclopropanecarboxamide] was tested, and the Ki was ≤ 50.1 nM.

In the case of `CN1CCN(C(=O)c2ccc(NC(=O)C3CC3)cc2N2CCCC2)C(c2cnn(C)c2)C1` (racemic) [Example 87, N-[4-[4-methyl-2-(1-methylpyrazol-4-yl)piperazine-1-carbonyl]-3-pyrrolidin-1-ylphenyl]Cyclopropanecarboxamide], the Ki is reported as 316 to 1000 nM.

`CN1CCN(C(=O)c2ccc(NC(=O)C3CC3)cc2N2CCCC2)C(c2cccc(F)c2)C1` (racemic) [Example 88c, N-[4-[2-(3-fluorophenyl)-4-methylpiperazine-1-carbonyl]-3-pyrrolidin-1-ylphenyl]cyclopropanecarboxamide] was tested, and the Ki was 63.1 to 251 nM.

For `CN1CCN(C(=O)c2ccc(NC(=O)C3CC3)cc2N2CCCC2)C(c2ccc(F)cc2)C1` (racemic) [Example 89, N-[4-[2-(4-fluorophenyl)-4-methylpiperazine-1-carbonyl]-3-pyrrolidin-1ylphenyl]cyclopropanecarboxamide], the Ki was 316 to 1000 nM.

With `CN1CCN(C(=O)c2ccc(-c3nccn3C)cc2N2CCCC2)C(c2ccccc2)C1` (racemic) [Example 121, [4-(1-methylimidazol-2-yl)-2-pyrrolidin-1-ylphenyl]-(4-methyl-2-phenylpiperazin-1-yl)methanone] the Ki was 1260 to 6310 nM.

Work on `Cc1nnc(-c2ccc(C(=O)N3CCN(C)CC3c3ccccc3)c(N3CCCC3)c2)o1` (racemic) [Example 123, [4-(5-methyl-1,3,4-oxadiazol-2-yl)-2-pyrrolidin-1-ylphenyl]-(4-methyl-2-phenylpiperazin-1-yl)methanone] yielded a Ki of 1260 to 6310 nM.

For `CC(C)C1CCN(c2nc(NC(=O)C3CC3)ccc2C(=O)N2CCS(=O)(=O)CC2)C1` (racemic) [Example 142, N-[5-(1,1-dioxo-1,4-thiazinane-4-carbonyl)-6-(3-propan-2-ylpyrrolidin-1-yl)pyridin-2-yl]cyclopropanecarboxamide], the Ki was ≤ 50.1 nM.

`CN1CCN(C(=O)c2ccc(NC(=O)C3CC3)nc2N2CCCC(F)(F)C2)C(c2ccccc2)C1` (racemic) [Example 144, N-[6-(3,3-difluoropiperidin-1-yl)-5-(4-methyl-2-phenylpiperazine-1-carbonyl)pyridin-2-yl]cyclopropanecarboxamide] gave a Ki of 63.1 to 251 nM.

`CN1CCN(C(=O)c2ccc(NC(=O)C3CC3)nc2N2CC3CC3C2)C(c2ccccc2)C1` (racemic) [Example 145] showed a Ki of 63.1 to 251 nM.

`CN1CCN(C(=O)c2ccc(NC(=O)C3CC3)nc2N2CCC(F)(F)CC2)C(c2ccccc2)C1` (racemic) [Example 146, N-[6-(4,4-difluoropiperidin-1-yl)-5-(4-methyl-2-phenylpiperazine-1-carbonyl)pyridin-2-yl]cyclopropanecarboxamide] was tested, and the Ki was 63.1 to 251 nM.

`CN1CCN(C(=O)c2ccc(NC(=O)C3CC3)nc2N2CCCCC2)C(c2ccccc2)C1` (racemic) [Example 147, N-[5-(4-methyl-2-phenylpiperazine-1-carbonyl)-6-piperidin-1-ylpyridin-2-yl]cyclopropanecarboxamide] was tested, and the Ki was 63.1 to 251 nM.

For `CN1CCN(C(=O)c2ccc(NC(=O)C3CC3)nc2N2CCC(F)(F)C2)C(c2ccccc2)C1` (racemic) [Example 148c, N-[6-(3,3-difluoropyrrolidin-1-yl)-5-(4-methyl-2-phenylpiperazine-1-carbonyl)pyridin-2-yl]cyclopropanecarboxamide], the Ki was 63.1 to 251 nM.

In the case of `CN1CCN(C(=O)c2ccc(NC(=O)C3CC3)nc2N2CCCC2)C(c2ccccc2)C1` (racemic) [Example 149c, N-[45-(4-methyl-2-phenylpiperazine-1-carbonyl)-6-pyrrolidin-1-ylpyridin-2-yl]cyclopropanecarboxamide], the Ki is reported as 63.1 to 251 nM.

With `Cc1nnc(-c2ccc(C(=O)N3CCN(C)CC3c3ccccc3)c(N3CCCC3)c2)[nH]1` (racemic) [Example 150c, (4-methyl-2-phenylpiperazin-1-yl)-[4-(5-methyl-4H-1,2,4-triazol-3-yl)-2-pyrrolidin-1-ylphenyl]methanone] the Ki was 63.1 to 251 nM.

`CN1CCN(C(=O)c2ccc(-c3nnc(C4CC4)[nH]3)cc2N2CCCC2)C(c2ccccc2)C1` (racemic) [Example 151c, [4-(5-cyclopropyl-4H-1,2,4-triazol-3-yl)-2-pyrrolidin-1-ylphenyl]-(4-methyl-2phenylpiperazin-1-yl)methanone] was tested, and the Ki was 63.1 to 251 nM.

Reference: patent US20230174484A1, “ANTAGONISTS OF GPR39 PROTEIN” (Oregon Health & Science University, priority 2020, published 2023)
